Measured values from PMC10404671, “Deciphering the biosynthesis of a novel lipid in Mycobacterium tuberculosis expands the known roles of the nitroreductase superfamily” (The Journal of Biological Chemistry, 2023).

Tests used:
[1] = biological target: T1, TyzB (Mycobacterium tuberculosis, UniProt P95234)
T1 construct: gene moeW

[2] = biological target: T2, TyzA (Mycobacterium tuberculosis, UniProt P95232)
T2 construct: gene Rv2336

[3] = biological target: T3, TyzC (Mycobacterium tuberculosis, UniProt P95233)
T3 construct: gene Rv2337c
T3 sequence (P95233 entry or part of it): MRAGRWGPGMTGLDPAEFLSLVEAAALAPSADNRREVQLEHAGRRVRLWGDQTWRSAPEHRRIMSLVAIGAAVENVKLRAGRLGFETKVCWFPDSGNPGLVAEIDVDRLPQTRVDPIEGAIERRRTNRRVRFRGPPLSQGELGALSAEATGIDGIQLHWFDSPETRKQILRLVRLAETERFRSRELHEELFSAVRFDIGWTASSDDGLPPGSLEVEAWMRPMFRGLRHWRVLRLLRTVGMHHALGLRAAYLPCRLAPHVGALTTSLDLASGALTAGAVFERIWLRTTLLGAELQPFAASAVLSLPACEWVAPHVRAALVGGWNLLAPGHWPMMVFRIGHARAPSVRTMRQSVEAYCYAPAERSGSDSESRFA

T1 sequence (P95234 entry or part of it): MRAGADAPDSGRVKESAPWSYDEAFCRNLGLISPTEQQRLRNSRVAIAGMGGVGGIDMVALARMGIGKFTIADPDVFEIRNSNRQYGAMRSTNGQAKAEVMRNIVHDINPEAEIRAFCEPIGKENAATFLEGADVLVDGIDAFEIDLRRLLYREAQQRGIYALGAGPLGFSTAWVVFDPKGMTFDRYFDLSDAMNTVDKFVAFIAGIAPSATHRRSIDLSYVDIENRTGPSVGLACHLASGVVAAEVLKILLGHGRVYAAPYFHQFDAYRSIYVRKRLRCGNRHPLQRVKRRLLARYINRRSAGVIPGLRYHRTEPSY
T2 sequence (P95232 entry or part of it): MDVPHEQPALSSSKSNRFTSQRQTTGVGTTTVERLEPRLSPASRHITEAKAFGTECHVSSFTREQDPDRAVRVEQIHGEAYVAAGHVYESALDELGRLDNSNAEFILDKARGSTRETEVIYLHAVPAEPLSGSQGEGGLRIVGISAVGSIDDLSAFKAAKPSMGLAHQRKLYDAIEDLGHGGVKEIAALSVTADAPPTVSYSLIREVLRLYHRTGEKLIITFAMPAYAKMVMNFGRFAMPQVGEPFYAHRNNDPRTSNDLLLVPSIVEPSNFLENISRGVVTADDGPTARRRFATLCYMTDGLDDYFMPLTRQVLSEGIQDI

Nc1ncnc2c1ncn2[C@@H]1O[C@H](COP(=O)(O)OP(=O)(O)OP(=O)(O)O)[C@@H](O)[C@H]1O [ATP]
LC-QTOF endpoint assay, purified TyzA plus RHA1 pTip-TyzBC lysate [1]: performed ATP-dependent cyclization and O2-dependent desaturation of C12:0-L-Tyr, respectively

CCCCCCCCCCCC(=O)SCCNC(=O)CCNC(=O)[C@H](O)C(C)(C)COP(=O)(O)OP(=O)(O)OC[C@H]1O[C@@H](n2cnc3c(N)ncnc32)[C@H](O)[C@@H]1OP(=O)(O)O [C12:0-CoA]
KiS [2]: 450 ± 90 µM

CCCCCCCCCCCC(=O)N[C@@H](Cc1ccc(O)cc1)C(=O)O [C12:0-L-Tyr]
LC-QTOF endpoint assay, purified TyzA plus RHA1 pTip-TyzBC lysate [3]: performed ATP-dependent cyclization and O2-dependent desaturation of C12:0-L-Tyr, respectively
